Assay results taken from ChEMBL document CHEMBL1201862, “PubChem BioAssay data set” (2004).
Calls of active or inactive are those of the source.

Tested on: not listed separately
Assay: cells
Type: functional
Conditions: not given
In the case of `O=C(Oc1ccc(/C=N/O)cc1)c1ccccc1Cl`, the IC50 is reported as 22.6 µM (active).

Target: T1, Replicative DNA helicase DnaB (Mycobacterium tuberculosis, UniProt P9WMR3)
T1 sequence (P9WMR3 whole entry): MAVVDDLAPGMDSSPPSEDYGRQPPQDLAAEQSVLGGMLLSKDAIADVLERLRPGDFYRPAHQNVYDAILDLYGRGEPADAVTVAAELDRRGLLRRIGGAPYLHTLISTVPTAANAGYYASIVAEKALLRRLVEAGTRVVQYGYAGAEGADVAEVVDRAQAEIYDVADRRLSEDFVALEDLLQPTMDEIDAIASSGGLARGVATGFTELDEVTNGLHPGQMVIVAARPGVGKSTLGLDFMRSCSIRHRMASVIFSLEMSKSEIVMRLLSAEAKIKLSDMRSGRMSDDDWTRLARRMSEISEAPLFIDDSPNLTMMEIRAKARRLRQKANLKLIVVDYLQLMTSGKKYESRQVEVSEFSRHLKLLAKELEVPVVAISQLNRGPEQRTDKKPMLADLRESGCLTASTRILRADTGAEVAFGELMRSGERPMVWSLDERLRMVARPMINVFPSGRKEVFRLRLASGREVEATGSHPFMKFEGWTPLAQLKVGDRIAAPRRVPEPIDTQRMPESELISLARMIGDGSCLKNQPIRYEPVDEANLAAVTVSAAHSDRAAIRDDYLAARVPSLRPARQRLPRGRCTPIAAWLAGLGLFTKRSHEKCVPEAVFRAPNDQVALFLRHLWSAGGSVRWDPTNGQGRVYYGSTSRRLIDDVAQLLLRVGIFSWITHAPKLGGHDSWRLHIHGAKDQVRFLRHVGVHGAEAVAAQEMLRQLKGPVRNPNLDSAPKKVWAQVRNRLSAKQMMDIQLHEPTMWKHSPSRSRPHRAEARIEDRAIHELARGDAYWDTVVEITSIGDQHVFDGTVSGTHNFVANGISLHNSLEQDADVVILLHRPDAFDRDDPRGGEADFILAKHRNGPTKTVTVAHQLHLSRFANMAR
Assay: DnaB intein splicing inhibitors, dose response, biochemical, cell-free fluorescence (AID 449749)
Type: functional
Conditions: not given
In the case of `O=c1cc(C23CC4CC(CC(C4)C2)C3)[nH][nH]1`, the AC50 is reported as 2.85 µM (active).
For `O=C(O)/C=C\C(=O)Nc1ccc(Oc2ccc(Br)cc2)cc1`, the AC50 was 14.6 µM (active).
With `Cc1n[nH]c2c1C(c1c(C)nn(C)c1C)C(C#N)=C(N)O2` (stereo unspecified) the AC50 was 4.2 µM (active).
With `O=C1NC(c2ccc(-c3ccccc3[N+](=O)[O-])o2)C(C(=O)c2ccc(Cl)cc2)C(O)(C(F)(F)F)N1` (stereo unspecified) the AC50 was 4.27 µM (active).
For `COCc1n[nH]c2c1C(c1ccccc1F)C(C#N)=C(N)O2` (stereo unspecified), the AC50 was 36.4 µM (active).
In the case of `CSc1nc(-c2ccco2)nn1C(=O)c1cccs1`, the AC50 is reported as 28.3 µM (active).

Target: T2, Microphthalmia-associated transcription factor (Homo sapiens, UniProt O75030)
T2 sequence (O75030 whole entry): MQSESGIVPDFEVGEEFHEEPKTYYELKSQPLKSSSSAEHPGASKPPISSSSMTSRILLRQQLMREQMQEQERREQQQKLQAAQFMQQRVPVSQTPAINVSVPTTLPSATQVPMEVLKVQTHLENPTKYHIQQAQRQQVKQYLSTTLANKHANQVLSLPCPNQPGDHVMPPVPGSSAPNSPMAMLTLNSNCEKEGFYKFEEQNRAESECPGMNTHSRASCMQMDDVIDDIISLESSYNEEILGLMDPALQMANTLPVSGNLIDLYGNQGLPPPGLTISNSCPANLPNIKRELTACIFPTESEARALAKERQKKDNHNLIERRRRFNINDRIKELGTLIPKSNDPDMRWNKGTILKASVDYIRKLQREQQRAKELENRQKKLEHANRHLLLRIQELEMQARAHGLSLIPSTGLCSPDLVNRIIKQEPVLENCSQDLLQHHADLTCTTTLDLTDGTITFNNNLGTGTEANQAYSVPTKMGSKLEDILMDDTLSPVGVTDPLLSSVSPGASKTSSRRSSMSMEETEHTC
Assay: reducers of TRPM1 reporter luminescence, concentration series – cell-based, SK-MEL-5, cherry-picked, set 3, MITF inhibitor project, dose response (AID 493073);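 also: SK-MEL-5 melanoma cells with luciferase driven by the MITF target TRPM1 promoter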
Type: functional
Conditions: not given
In the case of `CC(=O)Oc1c(C(=O)c2nnc(C)o2)c(=O)n(Cc2ccccc2)c2ccccc12`, the AC50 is reported as 6.98 µM (active).
In the case of `CC(C)(C)NC(=O)CCN(/N=C/c1ccc([N+](=O)[O-])o1)C1=NS(=O)(=O)c2ccccc21`, the AC50 is reported as 7.18 µM (active).

Target: T3, Rac GTPase-activating protein 1 (Homo sapiens, UniProt Q9H0H5)
T3 sequence (Q9H0H5 whole entry): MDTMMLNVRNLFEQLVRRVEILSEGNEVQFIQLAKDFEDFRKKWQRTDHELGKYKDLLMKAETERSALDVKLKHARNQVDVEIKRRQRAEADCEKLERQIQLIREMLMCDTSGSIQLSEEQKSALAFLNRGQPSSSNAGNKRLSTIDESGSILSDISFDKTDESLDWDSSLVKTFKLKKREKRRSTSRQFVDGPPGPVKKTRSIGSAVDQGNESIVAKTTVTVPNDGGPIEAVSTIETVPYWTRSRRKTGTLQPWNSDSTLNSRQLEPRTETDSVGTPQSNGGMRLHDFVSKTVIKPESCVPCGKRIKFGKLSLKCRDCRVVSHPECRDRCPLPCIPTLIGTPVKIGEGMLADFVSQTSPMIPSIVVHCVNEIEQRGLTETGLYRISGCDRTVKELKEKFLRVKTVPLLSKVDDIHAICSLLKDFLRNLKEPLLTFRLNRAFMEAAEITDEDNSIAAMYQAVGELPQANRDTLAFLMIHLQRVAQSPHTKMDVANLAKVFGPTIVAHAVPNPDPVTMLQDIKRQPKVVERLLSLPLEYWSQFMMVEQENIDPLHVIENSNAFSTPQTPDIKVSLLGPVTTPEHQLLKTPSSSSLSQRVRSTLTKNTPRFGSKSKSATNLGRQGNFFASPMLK
Assay: blockers of MgcRacGAP-driven Rac1 GTP hydrolysis – biochemical, ADP Hunter fluorescence, primary and confirmatory, confirmation (AID 624330)
Type: functional
Conditions: not given
In the case of `Cc1ccc(OC(S)=Nc2ccc(O)cc2)cc1`, the IC50 is reported as 31.6 µM (active).
With `CCn1c(C)nc2cc(C(=O)N/N=C/c3ccc(OC)c(O)c3)ccc21` the IC50 was 80 µM (active).
With `O=C1/C(=C\c2ccc(O)c(O)c2)N=C2CCCCCN12` the IC50 was 17.4 µM (active).

Tested on: not listed separately
Assay: Luminescence Cell-Based Dose Retest to Confirm Inhibitors of Cancer Stem Cells. [Related pubchem assays (depositor defined):AID2717, AID2721]
Type: functional, Homo sapiens
Conditions: Homo sapiens
For `O=C1NC(c2ccc(-c3ccccc3[N+](=O)[O-])o2)C(C(=O)c2ccc(Cl)cc2)C(O)(C(F)(F)F)N1` (stereo unspecified), the AC50 was 9.56 µM (active).

Target: T4, Protein RecA (Mycobacterium tuberculosis, UniProt P9WHJ3)
T4 sequence (P9WHJ3 whole entry): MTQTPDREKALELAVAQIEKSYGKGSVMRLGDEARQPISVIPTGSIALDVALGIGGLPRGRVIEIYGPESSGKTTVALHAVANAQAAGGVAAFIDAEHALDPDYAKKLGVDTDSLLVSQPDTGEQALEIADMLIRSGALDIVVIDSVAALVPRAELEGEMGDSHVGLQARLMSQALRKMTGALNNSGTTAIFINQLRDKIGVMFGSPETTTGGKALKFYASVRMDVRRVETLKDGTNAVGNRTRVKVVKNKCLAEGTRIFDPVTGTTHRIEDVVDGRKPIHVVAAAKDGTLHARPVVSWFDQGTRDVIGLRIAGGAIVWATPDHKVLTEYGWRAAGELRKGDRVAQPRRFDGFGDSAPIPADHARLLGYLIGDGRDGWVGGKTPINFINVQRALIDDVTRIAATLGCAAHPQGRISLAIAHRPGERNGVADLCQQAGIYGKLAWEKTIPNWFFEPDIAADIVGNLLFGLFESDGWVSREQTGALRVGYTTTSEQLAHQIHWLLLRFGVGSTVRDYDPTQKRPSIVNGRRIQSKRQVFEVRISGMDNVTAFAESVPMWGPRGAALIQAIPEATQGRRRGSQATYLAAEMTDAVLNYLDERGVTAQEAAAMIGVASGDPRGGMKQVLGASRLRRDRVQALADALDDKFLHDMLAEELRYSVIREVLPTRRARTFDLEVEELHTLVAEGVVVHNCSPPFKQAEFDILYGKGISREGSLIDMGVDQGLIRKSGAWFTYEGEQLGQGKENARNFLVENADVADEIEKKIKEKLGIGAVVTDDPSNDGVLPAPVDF
Assay: Fluorescence Cell-Free Homogeneous Dose Retest to Identify Inhibitors of RecA-Intein Splicing Activity. [Related pubchem assays (depositor defined):AID2097, AID2223, AID489010, AID492950]
Type: functional
Conditions: not given
With `O=c1cc(C23CC4CC(CC(C4)C2)C3)[nH][nH]1` the EC50 was 2.52 µM (active).
With `O=C(O)/C=C\C(=O)Nc1ccc(Oc2ccc(Br)cc2)cc1` the EC50 was 11 µM (active).
With `Cc1n[nH]c2c1C(c1c(C)nn(C)c1C)C(C#N)=C(N)O2` (stereo unspecified) the EC50 was 4.86 µM (active).
In the case of `COCc1n[nH]c2c1C(c1ccccc1F)C(C#N)=C(N)O2` (stereo unspecified), the EC50 is reported as 6.49 µM (active).
With `CSc1nc(-c2ccco2)nn1C(=O)c1cccs1` the EC50 was 24.7 µM (active).

Target: Large T antigen (Simian virus 40, UniProt P03070);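 also: Confirmatory-stage PubChem screen for compounds that inhibit SV40 T antigen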
Sequence (P03070 whole entry): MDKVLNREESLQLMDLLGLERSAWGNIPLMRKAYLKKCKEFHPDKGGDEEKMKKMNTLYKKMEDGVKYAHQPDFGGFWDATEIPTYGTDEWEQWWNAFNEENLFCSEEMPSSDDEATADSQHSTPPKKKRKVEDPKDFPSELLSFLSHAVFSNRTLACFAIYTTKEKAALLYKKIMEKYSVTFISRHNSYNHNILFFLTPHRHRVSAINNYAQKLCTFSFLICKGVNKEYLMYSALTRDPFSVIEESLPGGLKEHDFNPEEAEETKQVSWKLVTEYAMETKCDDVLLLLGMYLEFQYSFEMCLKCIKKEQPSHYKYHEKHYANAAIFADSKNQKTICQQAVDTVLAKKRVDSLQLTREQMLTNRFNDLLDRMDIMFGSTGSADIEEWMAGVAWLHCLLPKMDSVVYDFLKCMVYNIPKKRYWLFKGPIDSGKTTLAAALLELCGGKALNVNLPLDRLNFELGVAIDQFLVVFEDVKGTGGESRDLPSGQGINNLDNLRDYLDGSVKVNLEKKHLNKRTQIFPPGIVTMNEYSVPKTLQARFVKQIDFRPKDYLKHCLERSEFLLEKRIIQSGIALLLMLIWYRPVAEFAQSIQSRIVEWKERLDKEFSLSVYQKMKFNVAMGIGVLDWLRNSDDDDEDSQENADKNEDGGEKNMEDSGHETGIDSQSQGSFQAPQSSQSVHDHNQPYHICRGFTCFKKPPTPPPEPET
Assay: not given
Type: functional, Betapolyomavirus macacae
Conditions: not given
With `CCc1n[nH]c(SCC(=O)Nc2ccc(N(C)C)cc2)n1` the IC50 was 15.5 µM (active).
In the case of `Cc1ccc(OC(S)=Nc2ccc(O)cc2)cc1`, the IC50 is reported as 13 µM (active).
For `CCn1c(C)nc2cc(C(=O)N/N=C/c3ccc(OC)c(O)c3)ccc21`, the IC50 was 4.76 µM (active).
With `COc1cc(Cn2nnc3ccccc32)ccc1O` the IC50 was 7.55 µM (active).
In the case of `O=C1/C(=C\c2ccc(O)c(O)c2)N=C2CCCCCN12`, the IC50 is reported as 6.68 µM (active).

Tested on: not listed separately
Assay: fluconazole-exposed Candida albicans growth modulators – fluorescence, retest, confirmation (AID 2467)
Type: functional, cell-based
Conditions: not given
For `Cc1ccc(S(=O)(=O)CC(C)N2CCOCC2)c(S(=O)(=O)CC(C)N2CCOCC2)c1` (stereo unspecified), the EC50 was 6.26 µM (active).

Tested on: not listed separately
Assay: NIH-3T3 fibroblast cytotoxicity, dose response, cytotoxicity control, cell-based, fluorescence, Alamar Blue, secondary assay (AID 2327);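 also: NIH-3T3 mouse fibroblasts cultured with fluconazole at 8 µg/mL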
Type: functional
Conditions: not given
In the case of `CC1CCCCN1S(=O)(=O)c1ccc(NC(=O)c2cccc(-n3cnnn3)c2)cc1` (stereo unspecified), the EC50 is reported as > 150 µM (inactive).
With `Cc1ccc(S(=O)(=O)CC(C)N2CCOCC2)c(S(=O)(=O)CC(C)N2CCOCC2)c1` (stereo unspecified) the EC50 was > 160 µM (inactive).
